One compound from patent publication US20240402081A1, “MOLECULAR DIFFUSION EVALUATION METHOD AND SYSTEM” (Nippon Telegraph and Telephone Corporation, priority 2021, published 2024) can be followed below.

Molecules are shown by their SMILES.

This series is described as follows: SPR measurement of tracer molecule diffusion in a hydrogel layer (channel chip). The conditions noted are these: aqueous solutions of glucose and ethanol as tracer molecules; FIG. 5. In kind it is physicochemical. As to the method:
Hereinafter, a molecular diffusion evaluation method according to an embodiment of the present invention will be described with reference to FIG. 1. First, in step S101, a solution in which a target molecule (tracer molecule) is dissolved is introduced into a channel. The channel is formed on, for example, a measurement chip used by being attached to a surface plasmon resonance (SPR) measurement system. The channel includes a measurement area by surface plasmon resonance and a hydrogel layer provided in the middle of the measurement area. […] In a process where the solution in which the target molecule is dissolved passes through the portion where the hydrogel layer is not formed and the portion where the hydrogel layer is formed, the refractive index (SPR angle) at each portion is measured in time series, and the refractive index change (time change in SPR angle) at each portion is acquired. The refractive index change measured in the process of passing through the portion where the hydrogel layer is not formed is the first measurement result. In addition, the refractive index change measured in the process of passing through the portion where the hydrogel layer is formed is the second measurement result. Next, in step S103, the diffusion rate of molecules in the hydrogel is evaluated by comparing the first measurement result with the second measurement result (evaluation step). […]
On the technique in general: SPR reads the build-up and loss of mass on a sensor chip optically.

In the case of `CCO` [ethanol], the “diffusion rate in the acrylamide gel, comparison of scaled SPR angle change curves” value was “different”.
